Measurements from paper PMC12115217, “3,3′-((3-Hydroxyphenyl)azanediyl)dipropionic Acid Derivatives as a Promising Scaffold Against Drug-Resistant Pathogens and Chemotherapy-Resistant Cancer” (Pathogens, 2025).
≈ marks a conversion by molar mass, not a printed value. Entries after “also recorded” stand apart in the source; their conditions may differ. Structures can show the parent of a compound that is named as a salt.

Columns and labels:
HEK293 cells = experiment: MTT dose-response IC50, HEK293 cells; assay type: cell-based; details: non-cancerous HEK293 cells, 24 h
Description: (§1) FaDu cells were obtained from the American Type Culture Collection (Rockville, MD, USA). HEK293 cells were kindly provided by Dr. Iliev lab at the Jill Roberts Institute for Inflammatory Bowel Disease, Weill Cornel Medicine of Cornel University (New York, NY, USA). All cells were cultivated in Dulbecco’s Modified Eagle Medium/Nutrient Mixture F-12 (DMEM/F-12) (Gibco, Waltham, MA, USA), 10% fetal bovine serum (FBS) (Gibco, Waltham, MA, USA), 100 U/mL penicillin, and 100 μg/mL streptomycin (P/S) (Gibco, Waltham, MA, USA). Culturing conditions were maintained at 37 °C in a humidified atmosphere containing 5% CO2. The culture medium was refreshed every 2–3 days, and cells were passaged upon reaching 70–80% confluence.
(§2) The in vitro inhibitory effects of the compounds were assessed by using the MTT assay. Briefly, cells were plated in 96-well plates at a density of 1 × 10⁴ cells per well. After the cells were allowed to adhere overnight at 37 °C in 5% CO₂, they were treated with compounds at a concentration of 100 µM in triplicate. Following a 20 h incubation, the MTT reagent was added, and the cells were further incubated for 4 h. The resulting formazan was solubilized in anhydrous DMSO, and absorbance was measured at 570 nm by using a microplate reader. Cell viability was calculated by using the following formula: ([AE − AB]/[AC − AB]) × 100%, where AE, AC, and AB represent the absorbance values of experimental samples, untreated controls, and blank wells, respectively. Data analysis was performed by using GraphPad Prism or QuickCalcs.
(§3) The data were fitted to a nonlinear regression model (GraphPad Prism version 9.0, GraphPad Software, San Diego, CA, USA) to calculate the IC50 values for each compound tested in triplicate.

FaDu cells [1] = experiment: MTT dose-response IC50, FaDu cells; assay type: cell-based; details: 0–100 µM, 24 h
Description: as §1, §2, §3

FaDu cells [2] = experiment: Hydrogen peroxide production assay in FaDu cells; assay type: cell-based; details: 6 h, 0.25% DMSO, versus untreated control
Description: FaDu cells were seeded on the 6-well plates and incubated with the compounds as described before. After incubation, cells were cooled down on ice, washed two times with ice-cold PBS, and scraped in PBS. Cells were centrifuged at 10,000× g for 10 min at 4 °C, the supernatant was discarded, and 650 µL of ice-cold PBS was added. Cells were sonicated and centrifuged at 10,000× g for 10 min at 4 °C to remove cell debris. The resulting supernatant was carefully collected for subsequent hydrogen peroxide analysis by using a commercial kit (Pierce™ Quantitative Peroxide Assay Kit (Aqueous), Catalog number 23280) (Invitrogen, ThermoFisher Scientific, Waltham, MA, USA).

FaDu cells [3] = experiment: Superoxide dismutase (SOD) activity in FaDu cell lysate; assay type: cell-based; details: 6 h, 0.25% DMSO, versus untreated control (DMSO)
Description: FaDu cells were seeded onto 6-well tissue culture plates at a density of 5 × 10^5 cells per well and incubated overnight to allow for cell attachment. Following the incubation period, the cells were treated with the selected compounds dissolved in tissue culture medium containing 0.25% DMSO and incubated for an additional 6 h. After the treatment, the medium was aspirated, and the cells were washed twice with phosphate-buffered saline (PBS) to remove residual compounds. The cells were then trypsinized for 10 min to detach them from the culture surface. Following trypsinization, the cells were collected by centrifugation, washed with ice-cold PBS to remove any residual trypsin, and resuspended in 0.5 mL of ice-cold PBS. The cell suspension was then subjected to sonication on ice for disruption. After sonication, the samples were centrifuged at 10,000× g for 10 min at 4 °C to remove cell debris. The resulting supernatant was carefully collected for the subsequent assessment of SOD activity. The activity of superoxide dismutase (SOD) was determined by using a commercial colorimetric assay kit (Superoxide Dismutase (SOD) Colorimetric Activity Kit, Catalog Number EIASODC) (Invitrogen, ThermoFisher Scientific, Waltham, MA, USA) following the manufacturer’s instructions.

E. coli AR-0001 [4] = experiment: Broth microdilution MIC, E. coli AR-0001; assay type: cell-based; details: Escherichia coli, AR0001; multidrug-resistant, KPC-3; CAMHB, 18 ± 2 h; read-out: minimal inhibitory concentration (MIC) E. coli AR-0001
E. faecalis AR-0671 = experiment: Broth microdilution MIC, E. faecalis AR-0671; assay type: cell-based, Enterococcus faecalis; details: CAMHB; for MIC: Enterococcus faecalis, AR0671, 18 ± 2 h, read-out: minimal inhibitory concentration (MIC) E. faecalis AR-0671
Excerpt: (§4) The multidrug-resistant S. aureus strain TCH 1516 [USA 300-HOU-MR] was obtained from the American Type Culture Collection (ATCC, Manassas, VA, USA) (Table 1). E. faecalis AR-0671, multidrug-resistant E. coli AR-0001, K. pneumoniae AR-0003, P. aeruginosa AR-1114, and A. baumannii AR-0273 strains were acquired from the Centers for Disease Control and Prevention (CDC) AR isolate bank (Table 1). Prior to the initiation of this study, all microbial strains were stored in commercial cryopreservation systems at a temperature of −80 °C. The strains were cultivated on Columbia sheep blood agar (Becton Dickinson, Franklin Lakes, NJ, USA) or potato dextrose agar (PDA) for Candida (Becton Dickinson, Franklin Lakes, NJ, USA).
(§5) The antimicrobial activity of 3-((3-hydroxyphenyl)amino)propanoic acid derivatives was assessed by using the broth microdilution method, following the guidelines outlined by the Clinical Laboratory Standards Institute (CLSI), with modifications. In brief, the compounds were dissolved in dimethyl sulfoxide (DMSO) to attain a final concentration of 25–30 mg/mL. Vancomycin hydrochloride (MedChem express, Cat. No. HY-17362), cefazolin (MedChem express, Cat. No. HY-B1892), and meropenem (MedChem express, Cat. No. HY-13678) were used as control antimicrobial drugs and were dissolved in DMSO as described before. Dilution series were prepared in deep 96-well microplates to achieve a two-fold concentration range of 0.25, 0.5, 1, 2, 4, 8, 16, 32, and 64 µg/mL, utilizing cation-adjusted Mueller–Hinton broth (CAMHB) as the growth medium. The microplates containing the dilution series were then inoculated with fresh cultures of each tested organism to reach a final concentration of 5 × 10^4 CFU (colony-forming units) of the test organism in media containing 1% DMSO and 1× drug concentration, with a volume of 200 µL per well. Wells that were inoculated with medium containing 1% DMSO served as positive controls. Subsequently, the microplates were incubated at 35 ± 1 °C for 18 ± 2 h. Following the incubation period, the plates were examined by using a manual microplate viewer (Sensititre Manual Viewbox, ThermoFisher Scientific, Waltham, MA, USA). […] All experiments were conducted in duplicate with three technical replicates for each condition.

S. aureus TCH 1516 [5] = experiment: Broth microdilution MIC, S. aureus TCH 1516; assay type: cell-based; details: Staphylococcus aureus, MRSA / USA300, mecA MRSA isolate, USA300 lineage; CAMHB, 18 ±; read-out: minimal inhibitory concentration (MIC) S. aureus TCH 1516
K. pneumoniae AR-0003 [6] = experiment: Broth microdilution MIC, K. pneumoniae AR-0003; assay type: cell-based; details: Klebsiella pneumoniae, AR0003; KPC-3; CAMHB, 18 ± 2 h; read-out: minimal inhibitory concentration (MIC) K. pneumoniae AR-0003
A. baumannii AR-0273 = experiment: Broth microdilution MIC, A. baumannii AR-0273; assay type: cell-based, Acinetobacter baumannii; details: OXA-23, CAMHB; for MIC: Acinetobacter baumannii, AR0273, 18 ± 2 h, read-out: minimal inhibitory concentration (MIC) A. baumannii AR-0273
Excerpt: as §4, §5

P. aeruginosa AR-1114 [7] = experiment: Broth microdilution MIC, P. aeruginosa AR-1114; assay type: cell-based; details: Pseudomonas aeruginosa, AR1114; IMP-15; CAMHB, 18 ± 2 h; read-out: minimal inhibitory concentration (MIC) P. aeruginosa AR-1114
FaDu cells [8] = experiment: MTT cell viability at fixed 100 µM, FaDu cells; assay type: cell-based; details: 24 h, described in words (Figure 2)
Description: Test compounds 2–25 were dissolved in hybridoma-grade dimethyl sulfoxide (Millipore, Sigma, Burlington, MA, USA) to prepare stock solutions at concentrations of 10–25 mg/mL. […] For in vitro anticancer activity screening, the compounds were thawed at room temperature, protected from light, and the aliquots were diluted in complete cell culture media to achieve a final concentration of 100 µM and used for the in vitro assays. The cytotoxicity assays were performed in triplicate.
as §1, §2

S. aureus TCH 1516 [9] = experiment: Broth microdilution MIC, S. aureus TCH 1516; assay type: cell-based, Staphylococcus aureus; details: mecA MRSA isolate, USA300 lineage; CAMHB, 18 ± 2 h
Excerpt: as §4, §5

K. pneumoniae AR-0003 [10] = experiment: Broth microdilution MIC, K. pneumoniae AR-0003; assay type: cell-based, Klebsiella pneumoniae; details: KPC-3; CAMHB
Excerpt: as §4, §5

E. coli AR-0001 [11] = experiment: Broth microdilution MIC, E. coli AR-0001; assay type: cell-based, Escherichia coli; details: multidrug-resistant, KPC-3; CAMHB
Excerpt: as §4, §5

P. aeruginosa AR-1114 [12] = experiment: Broth microdilution MIC, P. aeruginosa AR-1114; assay type: cell-based, Pseudomonas aeruginosa; details: IMP-15; CAMHB
Excerpt: as §4, §5

MIC (E. coli AR-0001 [4]) [µg/mL]	MIC (E. faecalis AR-0671) [µg/mL]	MIC (S. aureus TCH 1516 [5]) [µg/mL]	MIC (K. pneumoniae AR-0003 [6]) [µg/mL]	MIC (A. baumannii AR-0273) [µg/mL]	MIC (P. aeruginosa AR-1114 [7]) [µg/mL]	minimal inhibitory concentration (MIC) S. aureus TCH 1516 (S. aureus TCH 1516 [9]) [µg/mL]	minimal inhibitory concentration (MIC) K. pneumoniae AR-0003 (K. pneumoniae AR-0003 [10]) [µg/mL]	minimal inhibitory concentration (MIC) E. faecalis AR-0671 (E. faecalis AR-0671) [µg/mL]	minimal inhibitory concentration (MIC) E. coli AR-0001 (E. coli AR-0001 [11]) [µg/mL]	minimal inhibitory concentration (MIC) A. baumannii AR-0273 (A. baumannii AR-0273) [µg/mL]	minimal inhibitory concentration (MIC) P. aeruginosa AR-1114 (P. aeruginosa AR-1114 [12]) [µg/mL]	SMILES	IC50 (HEK293 cells) [µM]	IC50 (FaDu cells [1]) [µM]	hydrogen peroxide levels (optical density at 525 nm) (FaDu cells [2])	SOD activity (U/mL of cell lysate) (FaDu cells [3])	IC50 (HEK293 cells; Homo sapiens) [µM]	IC50 (FaDu cells [1]; Homo sapiens) [µM]	post-treatment viability (MTT assay) (FaDu cells [8])
> 64	> 64	> 64	> 64	> 64	> 64	>64	>64	>64	>64	>64	>64	CC(C)=NNC(=O)CCN(CCC(=O)NN=C(C)C)c1cccc(O)c1 [Compound 19, 3,3′-((3-Hydroxyphenyl)azanediyl)bis(N′-(propan-2-ylidene)propanehydrazide)]							lower activity compared with compound 22
64 (≈ 119 µM)	16 (≈ 29.7 µM)	32 (≈ 59.3 µM)	> 64	> 64	> 64							O=C(CCN(CCC(=O)N/N=C1\C(=O)Nc2ccccc21)c1cccc(O)c1)N/N=C1\C(=O)Nc2ccccc21 [Compound 25]			significantly higher	significantly higher; also recorded: highest SOD activity	11.7	5.28	most promising reduction in cell viability

The remaining lines, values behind:

SMILES	MIC (E. coli AR-0001 [4]) [µg/mL]	MIC (E. faecalis AR-0671) [µg/mL]	MIC (S. aureus TCH 1516 [5]) [µg/mL]	MIC (K. pneumoniae AR-0003 [6]) [µg/mL]	MIC (A. baumannii AR-0273) [µg/mL]	MIC (P. aeruginosa AR-1114 [7]) [µg/mL]	minimal inhibitory concentration (MIC) S. aureus TCH 1516 (S. aureus TCH 1516 [9]) [µg/mL]	minimal inhibitory concentration (MIC) K. pneumoniae AR-0003 (K. pneumoniae AR-0003 [10]) [µg/mL]	minimal inhibitory concentration (MIC) E. faecalis AR-0671 (E. faecalis AR-0671) [µg/mL]	minimal inhibitory concentration (MIC) E. coli AR-0001 (E. coli AR-0001 [11]) [µg/mL]	minimal inhibitory concentration (MIC) A. baumannii AR-0273 (A. baumannii AR-0273) [µg/mL]	minimal inhibitory concentration (MIC) P. aeruginosa AR-1114 (P. aeruginosa AR-1114 [12]) [µg/mL]	IC50 (HEK293 cells) [µM]	IC50 (FaDu cells [1]) [µM]	hydrogen peroxide levels (optical density at 525 nm) (FaDu cells [2])	SOD activity (U/mL of cell lysate) (FaDu cells [3])	IC50 (HEK293 cells; Homo sapiens) [µM]	IC50 (FaDu cells [1]; Homo sapiens) [µM]	post-treatment viability (MTT assay) (FaDu cells [8])
N.N.[Cl][Pt][Cl] [CP, Cisplatin, reference compound]													15.9	16.3	lower level of hydrogen peroxide production than the tested compounds				
O=C1CCN(c2cccc(O)c2)C(=O)N1 [Compound 5, 1-(3-Hydroxyphenyl)dihydropyrimidine-2,4(1H,3H)-dione]	> 64	32 (≈ 155 µM)	16 (≈ 77.6 µM)	> 64	> 64	> 64									significantly higher	significantly higher	41.8	9.9	
O=C1CCN(c2cccc(O)c2)C(=S)N1 [Compound 6, 1-(3-Hydroxyphenyl)-2-thioxotetrahydropyrimidin-4(1H)-one]	> 64	32 (≈ 144 µM)	8 (≈ 36 µM)	> 64	> 64	> 64	16 (≈ 72 µM)								significantly higher	significantly higher	22.6	13.4	most promising reduction in cell viability
COc1cccc2c1C(=O)c1c(O)c3c(c(O)c1C2=O)C[C@@](O)(C(=O)CO)C[C@@H]3O[C@H]1C[C@H](N)[C@H](O)[C@H](C)O1 [DOX, doxorubicin hydrochloride, reference compound]															significant increase			1.81	
